Data as given in patent US20090246481A1, “DISPERSION OF WATER-INSOLUBLE COLORANT, METHOD OF PRODUCING SUBSTANCE CONTAINING WATER-INSOLUBLE COLORANT, FINE PARTICLES OF WATER-INSOLUBLE COLORANT, DISPERSING AGENT FOR WATER-INSOLUBLE COLORANT, AND RECORDING LIQUID, INK SET, PRINTED ARTICLE, METHOD OF FORMING IMAGE AND IMAGE FORMING APPARATUS …” (FUJIFILM Corporation, priority 2008, published 2009).

Assay: pKa of monomers by neutralization titration
Assay type: physicochemical
Conditions: tetrahydrofuran/water=6:4
Experimental: The pKa value of each monomer was calculated in accordance with a neutralization titration method in a system of tetrahydrofuran/water=6:4 by means of an automatic titrator COM-2500 (trade name) manufactured by Hiranuma Sangyo Co., Ltd.

| pKa | Structure (SMILES) |
| --- | --- |
| 3.98 | C=C(C)C(=O)O [Methacrylic acid] |
| 3.96 | C=C(C)C(=O)NS(C)(=O)=O [Monomer 1] |
